Measured values from US20200291100A1, “TREATMENT OF AGE-RELATED AND MITOCHONDRIAL DISEASES BY INHIBITION OF HIF-1 ALPHA FUNCTION” (President and Fellows of Harvard College, priority 2012, published 2020).

Tested on: PGC-1α/β knockout myotubes
Test: HIF stabilizing compounds in PGC-1α/β knockout myotubes with or without SIRT1 overexpression
Format: cell-based, mouse
Method: Next whether the ability of SIRT1 to regulate mitochondrial function independently of PGC-1α/β is mediated by HIF-1α was tested. […] Furthermore, cells expressing a mutant allele of HIF-1α that is constitutively stabilized due to the replacement of the two hydroxylated prolines with alanines (DPA) (FIG. 7A), caused genome asynchrony similar to hypoxia and treatment with DMOG (FIG. 7B).
Primary myoblasts cells were isolated from WT, SIRT1 KO (Price et al., 2012) and PGC-1α/β KO (Zechner et al., 2010) mice as previously described (Price et al., 2012). WT and PGC-1α/β KO primary myoblasts were plated and allowed to differentiate into myotubes by replacing the media with low glucose DMEM supplemented with 2% horse serum (Sigma-Aldrich) for 4 days. After the differentiation the cells were infected with empty vector or flag-SIRT1 adenovirus as described before (Gerhart-Hines et al., 2007). Media was replaced with fresh DMEM supplemented with 2% horse serum (Sigma-Aldrich) for an additional 48 hr and, after that the cells were harvested for the different assays as described. To investigate the role of HIF-1α in genome asynchrony, PGC-1α/β KO primary myotubes were treated for 12 hours with 1 mM DMOG (Sigma) or 10 μM DFO (Sigma), 24 h after infection with empty vector of flag-SIRT1 adenovirus or after 12 h treatment with […] NMN (Sigma).
RNA from skeletal muscle tissue and C2C12 cells were extracted with RNeasy mini kit (Qiagen) according to the instructions and quantified using the NanoDrop 1000 spectrophotometer (Thermo Scientific). cDNA was synthesized with the iSCRIP cDNA synthesis kit (BioRad) using 600 ng of RNA. Quantitative RT-PCR reactions were performed using 1 μM of primers and LightCycler® 480 SYBR Green Master (Roche) on an LightCycler® 480 detection system (Roche). Calculations were performed by a comparative method (2-ΔCT) using 18S as an internal control. For mtDNA analysis, total DNA was extracted with DNeasy blood and tissue kit (Qiagen). mtDNA was amplified using primers specific for the mitochondrial cytochrome c oxidase subunit 2 (COX2) gene and normalized to genomic DNA by amplification of the ribosomal protein s18 (rps18) nuclear gene. […]
Protein extracts from tissue or C2C12 cells were obtained by lysis in ice-cold lysis buffer (150 mM NaCl, 10 mM Tris HCl (pH 7.4), 1 mM EDTA, 1 mM EGTA, 1% Triton X-100, 0.5% NP-40) supplemented with a cocktail of protease and phosphatase inhibitors (Roche). Protein content was determined by the Bradford protein assay (Biorad), and 50 μg proteins were run on SDS-PAGE under reducing conditions. […] The immunostaining was detected using horseradish peroxidase-conjugated anti-rabbit or anti-mouse immunoglobulin for 1 h at room temperature.

COC(=O)CNC(=O)C(=O)OC [DMOG, dimethyloxaloylglycine]
expression of mitochondrial-encoded genes (DMOG compared to vehicle control, no SIRT1 overexpression): induced a decline | HIF-1α protein (immunoblot) (DMOG versus DMSO (FIG. 21C)): stabilizes HIF-1α protein | effect on induction of mitochondrial ETC genes by SIRT1 overexpression (SIRT1 adenovirus, 1 mM DMOG or 10 μM DFO, 12 hours): completely blocked
